From patent US20070027130A1, “Tricyclic 6-alkylidene-penem beta-lactamase inhibitors and beta-lactam antibiotic combination: a broad spectrum antibiotic” (priority 2005, published 2007)
In brackets after ≈: the same amount, converted by molar mass.

Key:
[1] = system: E. coli GC 6265 TEM-1 (LSU-80-8); experiment: In vivo antibacterial protection, infected mice; conditions: 168 h, read-out: ED50 mg/kg/SIV
Method: Female mice strain CD-1, approximately 18-22 grams, were received from Charles River Laboratories and quarantined 7 days prior to use.
Clinical isolates that were adapted to cause infection in mice were used in the experiment, including infections with strains of E. coli and E. cloacae.
Mice were challenged by injecting 0.5 ml intraperitoneally of a predetermined bacterial inoculum suspended in 5% hog gastric mucin. The bacterial inoculum was equivalent to 10-100 LD50s of the specific infecting strain and was designed to result in death of the non-treated control animals within 7 days. Antibacterial doses (dose concentration prepared by two fold serial dilutions of the antibiotic or antibiotic/compound combination) were dissolved or suspended in 0.2% aqueous agar (subcutaneous administration) or phosphate buffered saline (intravenous administration) and administered intravenously or subcutaneously in the following manner:
a) Subcutaneously: Dose volume of 0.5 ml was administered ½ hr after infection. […]
A detailed explanation of the protocol for the determination of in vivo efficacy follows: • A) The effectiveness of the lacamase inhibitor compound/cefepime combination was evaluated against a cefepime control. […]
The protective effects of the antibacterial agent(s) were measured by the survival of the infected untreated as compared to the treated animals. […]

[2] = system: E. coli GC 6260 (TEM-1 + SHV-5); experiment: MIC microbroth dilution; assay type: cell-based; conditions: Escherichia coli, β-lactamase class A, A (ESBL), MHBII, 35° C. 18 hr, read-out: Minimal Inhibitory Concentration
Method: (§1) The in vitro activities of the antibiotics were determined by the microbroth dilution method as recommended by the National Committee for Clinical Laboratory Standards (NCCLS). (NCCLS. 2000. Methods for Dilution Antimicrobial Susceptibility Tests for Bacteria That Grow Aerobically; Approved Standards: M7-A5, vol. 19. National Committee for Clinical Laboratory Standards, Villanova, Pa.). Mueller-Hinton II broth (MHBII) (BBL Cockeysville, Md.), was used for the testing procedure. […]. The plates were incubated for 18-22 hours at 35 C. in ambient air.

[3] = system: K. oxytoca GC 7627 TEM-1 K1 KPC-2; experiment: MIC microbroth dilution; assay type: cell-based; conditions: Klebsiella oxytoca, 18 h, read-out: Minimal Inhibitory Concentration
Method: as §1

[4] = system: M. morganii GC 1617 TEM-10 + inducible AmpC; experiment: MIC microbroth dilution; assay type: cell-based; conditions: Morganella morganii, β-lactamase class A (ESBL), C, MHBII, 35° C. 18 hr, read-out: Minimal Inhibitory Concentration
Method: as §1

[5] = system: E. coli GC 2009 (TEM-10); experiment: MIC microbroth dilution; assay type: cell-based; conditions: Escherichia coli, 18 h, read-out: Minimal Inhibitory Concentration
Method: as §1

[6] = system: P. aeruginosa GC 1763 AmpC-inducible; experiment: MIC microbroth dilution; assay type: cell-based; conditions: Pseudomonas aeruginosa, β-lactamase class C, MHBII, 35° C. 18 hr, read-out: Minimal Inhibitory Concentration
Method: as §1

[7] = system: S. marcescens GC 4132 (AmpC); experiment: MIC microbroth dilution; assay type: cell-based; conditions: Serratia marcescens, β-lactamase class C, MHBII, 35° C. 18 hr, read-out: Minimal Inhibitory Concentration
Method: as §1

[8] = system: K. pneumoniae GC 7635 SHV-1, KPC2; experiment: MIC microbroth dilution; assay type: cell-based; conditions: Klebsiella pneumoniae, β-lactamase class A, A (Cb'ase), MHBII, 35° C. 18 hr, read-out: Minimal Inhibitory Concentration
Method: as §1

[9] = system: E. coli GC 1499 (TEM-4 + TEM-1); experiment: MIC microbroth dilution; assay type: cell-based; conditions: Escherichia coli, β-lactamase class A, A (ESBL), MHBII, 35° C. 18 hr, read-out: Minimal Inhibitory Concentration
Method: as §1

[10] = system: K. pn GC 1516 (TEM-26); experiment: MIC microbroth dilution; assay type: cell-based; conditions: Klebsiella pneumoniae, β-lactamase class A (ESBL), MHBII, 35° C. 18 hr, read-out: Minimal Inhibitory Concentration
Method: as §1

[11] = system: S. marcescens GC 1781 (Sme-1 + AmpC); experiment: MIC microbroth dilution; assay type: cell-based; conditions: Serratia marcescens, β-lactamase class A (Cb'ase), C, MHBII, 35° C. 18 hr, read-out: Minimal Inhibitory Concentration
Method: as §1

[12] = system: E. cloacae PT 967 Inducible AmpC; experiment: MIC microbroth dilution; assay type: cell-based; conditions: Enterobacter cloacae, β-lactamase class C, MHBII, 35° C. 18 hr, read-out: Minimal Inhibitory Concentration
Method: as §1

[13] = system: E. aerogenes 1697-MP GC 7845 AmpC; experiment: MIC microbroth dilution; assay type: cell-based; conditions: Klebsiella aerogenes; E. aerogenes GC 7845; β-lactamase class C; MHBII, 35° C. 18 hr; read-out: Minimal Inhibitory Concentration
Method: as §1

[14] = system: E. aerogenes GC 7036 TEM-24, Amp C inducable; experiment: MIC microbroth dilution; assay type: cell-based; conditions: Klebsiella aerogenes, β-lactamase class A (ESBL), MHBII, 35° C. 18 hr, read-out: Minimal Inhibitory Concentration
Method: as §1

[15] = system: E. coli GC 2847 (TEM-1); experiment: MIC microbroth dilution; assay type: cell-based; conditions: Escherichia coli, β-lactamase class A, MHBII, 35° C. 18 hr, read-out: Minimal Inhibitory Concentration
Method: as §1

**Q.** Which results are given for `CO/N=C(\C(=O)N[C@@H]1C(=O)N2C(C(=O)[O-])=C(C[N+]3(C)CCCC3)CS[C@H]12)c1csc(N)n1` [Cefepime]?
**A.** ED50 [1]: 0.039 mg/kg; MIC [2]: > 16 µg/mL; MIC [3]: > 16 µg/mL; MIC [4]: 0.25 µg/mL (≈ 0.52 µM); MIC [5]: > 16 µg/mL; MIC [6]: 2 µg/mL (≈ 4.16 µM); MIC [7]: 0.5 µg/mL (≈ 1.04 µM); MIC [8]: > 16 µg/mL; MIC [9]: > 16 µg/mL; MIC [10]: > 16 µg/mL; MIC [11]: 0.06 µg/mL (≈ 0.125 µM); MIC [12]: 0.12 µg/mL (≈ 0.25 µM); MIC [13]: 0.5 µg/mL (≈ 1.04 µM); MIC [14]: 2 µg/mL (≈ 4.16 µM); MIC [15]: 0.12 µg/mL (≈ 0.25 µM)
